Measured values as given in patent US10098347B2, “Methods of improving growth and stress tolerance in plants” (Valent BioSciences LLC, priority 2016, dated 2018).

Experiments:
Assay type in all cases: in vivo
[1] = tested on: Italian sweet basil; assay: Chilling damage of Italian sweet basil following spray treatment (Example 3)
Method: (§1) A laboratory study was conducted at Long Grove, Ill. Italian sweet basil seeds were sown in Pro-Mix® BX potting soil and plants were grown at room temperature under cool-white fluorescent lights under a 16:8 (light:dark) photoperiod. At 22 days post-sowing, plants were subjected to sprays with a portable Preval® paint sprayer. At 48 hours post-spraying, plants were moved to a CONVIRON® growth chamber and subjected to a temperature of 4° C. for 72 hours under a 12:12 (light:dark) photoperiod. Upon removal from the cold chamber, plants were returned to the laboratory and placed again under the cool white fluorescent lamps until they were visually scored for chilling damage at 24 hours and 72 hours post-chilling. Each treatment was replicated seven times.

[2] = tested on: Cucumber (Cucumis sativa var. Straight Eight); assay: Post-chilling damage in cucumber following spray treatment
Method: A laboratory study was conducted at Long Grove, Ill. Cucumber (Cucumis sativa var. Straight Eight) seeds were sown in Pro-Mix® BX potting soil (Pro-Mix is a registered trademark of and available from Premier Horticulture Ltd.) and plants were grown in a CONVIRON® growth chamber at 25° C. under a 16:8 (light:dark) photoperiod. At 15 days post-sowing, plants were subjected to sprays with a portable Preval® paint sprayer. All spray solutions were made up in deionized water and a non-ionic surfactant was added to all spray solutions at 0.05% (v/v). At 48 hours post-spraying, plants were moved to a CONVIRON® growth chamber and subjected to a temperature of 4° C. for 48 hours under a 12:12 (light:dark) photoperiod. Upon removal from the cold chamber, plants were returned to a CONVIRON® growth chamber set at 25° C. under a 16:8 (light:dark) photoperiod. The plants were visually scored for chilling damage at 72 hours post-chilling. Each treatment was replicated seven times. […] Using the following formula, Applicant was able to determine that the response to the GB:(S)-ABA ratio was synergistic, in which a synergy factor is calculated by the […]: % Cexp=A+B−(AB/100), where % Cexp is the expected efficacy and “in which A and B are the increase in growth (or resistance to stress) levels given by the single [plant growth regulators]. If the ratio between the experimentally observed efficacy of the mixture Cobs and the expected efficacy of the mixture is greater than 1, synergistic interactions are present in the mixture” (Gisi, Synergistic Interaction of Fungicides in Mixtures, The American Phytopathological Society, 86:11, 1273-1279, 1996). To be conservative Applicant has set the minimum synergy factor to 1.1 throughout the Examples. Applicant determined synergy to be present at the following ratios of GB:(S)-ABA: 1:1 (synergy factor 3.74); 3.3:1 (synergy factor 2.68) and 10:1 (synergy factor 1.24).

[3] = tested on: Italian large leaf basil (Ocimum basilicum) seedlings; assay: Chilling tolerance assay in basil seedlings (24-well plates)
Method: To determine the capacity of glycine betaine (“GB”) to confer thermo-tolerance, both singly and in combination with (S)-abscisic acid (“(S)-ABA”), chilling (i.e. cold) tolerance assays were performed using Italian large leaf basil (Ocimum basilicum) seedlings. Basil seeds were sterilized in an ethanol solution containing 0.16% Maxim® XL fungicide (Maxim is a registered trademark of and available from Syngenta Corporation). The sterilized seeds were germinated on ½×Murashige and Skoog Basal Salt Media, supplemented with 1× Gamborg's Vitamins and 0.6% Phytagar, and dispensed into 24-well plates. […]
After five days, concentrated solutions of GB and/or (S)-ABA were added as an overlay in 0.4% Phytagar. […] The seedlings were subjected to chilling stress for six days, after which time they were transferred back to the ambient temperature chamber, and scored after a six-day recovery period.
Individual wells contained indicated amounts of GB and/or (S)-ABA. […] GB was evaluated singly at concentrations of 0, 3,000, 10,000, 30,000, and 100,000 milligrams per liter (“mg/l”.) To test whether there was a synergistic interaction between GB and (S)-ABA, glycine betaine was added to the media at concentrations of 0, 1,000, 3,000, 10,000, and 30,000 mg/l, whereas (S)-ABA was held at a concentration of 3 mg/l. […]

[4] = tested on: Italian sweet basil; assay: Chilling damage of Italian sweet basil following spray treatment (Example 4)
Method: as §1, with “the cool-white” for “the cool white”, “and 120” for “and 72”

[5] = tested on: Corn; assay: Stomatal conductance of corn following spray; settings: for % of Control Conductance 4 days: 4 days post-spray; for % of Control Conductance 3 days: 3 days post-spray
Method: A greenhouse study was conducted at Long Grove, Ill. Seeds of a commercial hybrid variety were sown in Pro-Mix® BX in three-liter pots. Greenhouses were kept at 25±3° C. under a 16:8 hour (light:dark) photoperiod, with illumination at canopy level of ˜250 μmoles m-2 s-1. Corn was typically fertigated with Peters 21-5-20+ micronutrients, calcium ammonium nitrate and magnesium sulfate. Typical growth rates for corn under these conditions ranged from 4 to 5 centimeters per day.
In this study, spray applications were made to corn at stage V4. These applications were made in a track sprayer outfitted with a 4001E Teejet® nozzle (Teejet is available from and a registered trademark of Spraying Systems Co., Glendale Heights, Ill., USA) and applied at 40 pounds per square inch and at 30 gallons/acre of spray solution. Following spray applications, plants were returned to the greenhouse.
At 3 and 4-days post spray application, stomatal conductance of the 4th true leaf was measured using a Licor Model 6400 XT photosynthesis meter (Licor, Lincoln, Neb.) used according to the manufacturer's directions. For ease of analysis, stomatal conductance values are expressed as a percent of control in Table 5 below.

[6] = single agent spray 300 mg/l, 4° C. 72 h
[7] = single agent spray 300 mg/l, 72 hours post-chilling (4° C. 48 h)

CC1=CC(=O)CC(C)(C)[C@@]1(O)/C=C/C(C)=C/C(=O)O [(S)-ABA, (S)-abscisic acid]
% Leaf Area Damaged 72 h post-chilling ([1]; single agent spray 300 mg/l): 27%
% Leaf Area Damaged 24 h post-chilling [1, 6]: 12%
% Leaf Area Damaged 24 h post-chilling ([1]; single agent spray 1,000 mg/l): 6%
% Leaf Area Damaged 72 h post-chilling ([1]; single agent spray 1,000 mg/l): 14%
% Leaf Area Damaged [2, 7]: 52.9%
Chilling injury ([3]; 20 ppm (S)-ABA alone (positive control)): “++” denotes little to no chilling injury; equivalent to 20 ppm (S)-ABA alone
% Leaf Area Damaged 120 h post-chilling ([4]; single agent spray 300 mg/l): 41.00%
% Leaf Area Damaged 24 h post-chilling [4, 6]: 23.00%
% Leaf Area Damaged 24 h post-chilling ([4]; single agent spray 1,000 mg/l): 11.67%
% Leaf Area Damaged 120 h post-chilling ([4]; single agent spray 1,000 mg/l): 21.67%
% of Control Conductance 4 days ([5]; single agent spray 100 mg/l): 91.8 % of Control
% of Control Conductance 3 days ([5]; single agent spray 100 mg/l, corn stage V4, 4th true leaf): 81.3 % of Control
% of Control Conductance 3 days ([5]; single agent spray 300 mg/l): 73.6 % of Control
% of Control Conductance 4 days ([5]; single agent spray 300 mg/l): 88.7 % of Control
% of Control Conductance 3 days ([5]; single agent spray 1,000 mg/l): 76.5 % of Control
% of Control Conductance 4 days ([5]; single agent spray 1,000 mg/l): 95.9 % of Control
% of Control Conductance 3 days ([5]; single agent spray 3,000 mg/l): 55.3 % of Control
% of Control Conductance 4 days ([5]; single agent spray 3,000 mg/l): 77.5 % of Control

C[N+](C)(C)CC(=O)[O-] [GB, Glycine betaine]
% Leaf Area Damaged 24 h post-chilling ([1]; single agent spray 3,000 mg/l): 67%
% Leaf Area Damaged 72 h post-chilling ([1]; single agent spray 3,000 mg/l): 79%
% Leaf Area Damaged 24 h post-chilling ([1]; single agent spray 20,000 mg/l): 45%
% Leaf Area Damaged 72 h post-chilling ([1]; single agent spray 20,000 mg/l): 65%
% Leaf Area Damaged [2, 7]: 84.3%
% Leaf Area Damaged ([2]; single agent spray 1,000 mg/l, 72 hours post-chilling): 82.1%
% Leaf Area Damaged ([2]; single agent spray 3,000 mg/l, 72 hours post-chilling): 46.4%
Protection against chilling injury ([3]; 30,000 mg/l GB alone): equivalent protection as ˜20 mg/l (S)-ABA
% Leaf Area Damaged 24 h post-chilling ([4]; single agent spray 10,000 mg/l): 39.17%
% Leaf Area Damaged 120 h post-chilling ([4]; single agent spray 10,000 mg/l): 56.67%
% Leaf Area Damaged 24 h post-chilling ([4]; single agent spray 30,000 mg/l): 40.00%
% Leaf Area Damaged 120 h post-chilling ([4]; single agent spray 30,000 mg/l): 50.00%
% of Control Conductance 3 days ([5]; single agent spray 1,000 mg/l): 86.2 % of Control
% of Control Conductance 4 days ([5]; single agent spray 1,000 mg/l): 97.9 % of Control
